Here are results for 31 compounds from patent US12338262B2 (Forward Therapeutics, Inc., priority 2022, dated 2025).

In the test the target is TNF-α (Homo sapiens, UniProt P01375). In words: TNF-α Induced HEK Blue Cellular Assay. It is filed as cell-based. Particulars: HEK Blue TNFα reporter cells, TNF-α 100 pg/ml, 24 hrs at 37° C., secreted alkaline phosphatase (QUANTI-Blue, 620 nm). On the procedure: TNF-α Induced HEK Bluet Cellular Assay
Test articles were diluted in DMSO and serially diluted into 384 well assay plate (Corning 3765), at final concentrations ranging from […] to 0.5 nM. HEK Blue™ TNFα reporter cells were added at a final density of 10,000 cell per well in assay media [DMEM (Gibco, cat #21063-029), 10% fetal bovine serum (ExcelBio, cat #FND500), 1% Penicillin-Streptomycin (Solarbio, cat #P1400-100]. TNF-α (R&D 210-TA-020/CF) was then added to the assay plate at a final concentration of 100 pg/ml. This plate was then incubated for 24 hrs at 37° C. and 5% CO2. Secreted alkaline phosphatase expression was then measured using QUANTI-Blue™ (Invivogen), according to manufacturer instructions and read on an Envision microplate reader at 620 nm.
Inhibition data for test compound over a range of concentration was plotted as percentage inhibition of the test compound (100%=maximum inhibition). IC50 values were determined after correcting for background [(sample read-mean of low control)/(mean of high control-mean of low control)] where by the low control is DMSO without stimulation and high control is DMSO with stimulation. The IC50 is defined as the concentration of test compound which produces 50% inhibition and was quantified using the 4 parameter logistic equation to fit the data.

Structures are written as SMILES. pIC50: −log10 of the molar value. Where only a bound is given, the exact number is not on record here.

TNF-α, sequence (P01375 77-233 limits assumed): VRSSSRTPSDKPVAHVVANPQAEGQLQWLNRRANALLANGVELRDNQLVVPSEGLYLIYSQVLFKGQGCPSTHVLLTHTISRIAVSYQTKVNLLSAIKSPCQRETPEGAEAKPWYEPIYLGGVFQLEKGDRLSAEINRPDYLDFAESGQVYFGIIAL

As for `Cc1nc2cc(F)c(-c3ccc(P(C)(C)=O)nc3)nc2c(N[C@@H](c2ccccc2F)C(F)F)c1Cl` (single isomer, unassigned) [Example 25], the negative-log IC50 (pIC50) was ≥ 7.00. Under `CC[P@](C)(=O)c1ccc(-c2nc3c(N[C@H](C)c4cc(C#N)ccc4F)c(Cl)c(C)nc3cc2F)cn1` (single isomer, unassigned) [Example 58] stands ≥ 7.00. Take `Cc1nc2cc(F)c(-c3ccc(P(C)(C)=O)nc3)nc2c(N[C@H](CO)c2cc(C#N)ccc2F)c1Cl` (single isomer, unassigned) [Example 63]: the pIC50 was 4.52 to 5.00. The result for `Cc1nc2cc(F)c(-c3ccc(P(C)(C)=O)nc3)nc2c(N[C@@H](CO)c2cc(C#N)ccc2F)c1Cl` (single isomer, unassigned) [Example 64] reads 4.52 to 5.00; that for `Cc1nc2cc(F)c(-c3ccc(P(C)(C)=O)nc3)cc2c(N[C@H](C)c2cncnc2)c1Cl` (single isomer, unassigned) [Example 100], 4.52 to 5.00; that for `Cc1nc2cc(F)c(-c3ccc(P(C)(C)=O)nc3)cc2c(N[C@@H](C)c2cncnc2)c1Cl` (single isomer, unassigned) [Example 101], 4.52 to 5.00. Take `Cc1nc2cc(F)c(-c3ccc(P(C)(C)=O)nc3)nc2c(N[C@H](C)c2ccc(F)c(F)c2F)c1Cl` (single isomer, unassigned) [Example 109]: the pIC50 was ≥ 7.00. Under `Cc1nc2cc(F)c(-c3ccc(P(C)(C)=O)nc3)nc2c(N[C@@H](C)c2ccc(F)c(F)c2F)c1Cl` (single isomer, unassigned) [Example 110] stands ≥ 7.00. For `Cc1nc2cc(F)c(-c3ccc(P(C)(C)=O)nc3)nc2c(N[C@H](C)c2ncccc2F)c1Cl` (single isomer, unassigned) [Example 116], the pIC50 is ≥ 7.00.

In turn, `Cc1nc2cc(F)c(-c3ccc(P(C)(C)=O)nc3)nc2c(N[C@@H](C)c2ncccc2F)c1Cl` (single isomer, unassigned) [Example 117] had a pIC50 of 5.00 to 6.00. The result for `Cc1nc2cc(F)c(-c3ccc(P(C)(C)=O)nc3)nc2c(N[C@@H](c2cccc(F)c2F)C(F)F)c1Cl` (single isomer, unassigned) [Example 145] reads 4.52 to 5.00; that for `Cc1nc2cc(F)c(-c3cnc(P(C)(C)=O)nc3)nc2c(N[C@H](C)c2cc(C#N)ccc2F)c1Cl` [Example 1, 3-[(1R)-1-({3-chloro-6-[2-(dimethylphosphoryl)pyrimidin-5-yl]-7-fluoro-2-methyl-1,5-naphthyridin-4-yl}amino)ethyl]-4-fluorobenzonitrile], ≥ 7.00; that for `Cc1nc2cc(F)c(-c3ccc(P(C)(C)=O)nc3)nc2c(N[C@H](C)c2cc(C#N)ccc2F)c1Cl` [Example 2, 3-[(1R)-1-({3-chloro-6-[6-(dimethylphosphoryl)pyridin-3-yl]-7-fluoro-2-methyl-1,5-naphthyridin-4-yl}amino)ethyl]-4-fluorobenzonitrile], ≥ 7.00. The result for `Cc1nc2cc(F)c(-c3ccc(P(C)(C)=O)cc3)nc2c(N[C@H](C)c2cc(C#N)ccc2F)c1Cl` [Example 3, 3-[(1R)-1-({3-chloro-6-[4-(dimethylphosphoryl)phenyl]-7-fluoro-2-methyl-1,5-naphthyridin-4-yl}amino)ethyl]-4-fluorobenzonitrile] reads ≥ 7.00. For `CC[C@@H](Nc1c(Cl)c(C)nc2cc(F)c(-c3ccc(P(C)(C)=O)c(F)c3)nc12)c1ncccc1F` [Example 4, 3-chloro-6-[4-(dimethylphosphoryl)-3-fluorophenyl]-7-fluoro-N-[(1R)-1-(3-fluoropyridin-2-yl)propyl]-2-methyl-1,5-naphthyridin-4-amine], the negative logarithm of the IC50 (pIC50) was ≥ 6.00. Under `Cc1nc2ccc(-c3ccc(P(C)(C)=O)nc3)cc2c(N[C@H](C)c2cc(C#N)ccc2F)c1Cl` [Example 5, 3-[(1R)-1-({3-chloro-6-[6-(dimethylphosphoryl)pyridin-3-yl]-2-methylquinolin-4-yl}amino)ethyl]-4-fluorobenzonitrile] stands ≥ 7.00; under `Cc1nc2ccc(-c3cnc(P(C)(C)=O)nc3)cc2c(N[C@H](C)c2cc(C#N)ccc2F)c1Cl` [Example 6, 3-[(1R)-1-({3-chloro-6-[2-(dimethylphosphoryl)pyrimidin-5-yl]-2-methylquinolin-4-yl}amino)ethyl]-4-fluorobenzonitrile], ≥ 6.00. The result for `Cc1nc2cc(F)c(-c3cnc(P(C)(C)=O)nc3)nc2c(N[C@H](C)c2ccccc2F)c1Cl` [Example 7, 3-chloro-6-[2-(dimethylphosphoryl)pyrimidin-5-yl]-7-fluoro-N-[(1R)-1-(2-fluorophenyl)ethyl]-2-methyl-1,5-naphthyridin-4-amine] reads ≥ 6.00. The result for `Cc1nc2cc(F)c(-c3cnc(P(C)(C)=O)nc3)cc2c(N[C@H](C)c2cc(C#N)ccc2F)c1Cl` [Example 8, 3-[(1R)-1-({3-chloro-6-[2-(dimethylphosphoryl)pyrimidin-5-yl]-7-fluoro-2-methylquinolin-4-yl}amino)ethyl]-4-fluorobenzonitrile] reads ≥ 7.00; that for `CC[C@@H](Nc1c(Cl)c(C)nc2cc(F)c(-c3cnc(P(C)(C)=O)nc3)nc12)c1cc(C#N)ccc1F` [Example 9, 3-[(1R)-1-({3-chloro-6-[2-(dimethylphosphoryl)pyrimidin-5-yl]-7-fluoro-2-methyl-1,5-naphthyridin-4-yl}amino)propyl]-4-fluorobenzonitrile], ≥ 7.00; that for `Cc1nc2cc(F)c(-c3ccc(P(C)(C)=O)nc3)cc2c(N[C@H](C)c2cc(C#N)ccc2F)c1Cl` [Example 10, 3-[(1R)-1-({3-chloro-6-[6-(dimethylphosphoryl)pyridin-3-yl]-7-fluoro-2-methylquinolin-4-yl}amino)ethyl]-4-fluorobenzonitrile], ≥ 7.00.

In the case of `Cc1nc2cc(F)c(-c3cnc(P(C)(C)=O)nc3)cc2c(N[C@H](C)c2ccccc2F)c1Cl` [Example 11, 3-chloro-6-[2-(dimethylphosphoryl)pyrimidin-5-yl]-7-fluoro-N-[(1R)-1-(2-fluorophenyl)ethyl]-2-methylquinolin-4-amine], the negative logarithm of the IC50 (pIC50) was ≥ 7.00. Consider `C[C@@H](Nc1c(Cl)cnc2cc(F)c(-c3cnc(P(C)(C)=O)nc3)cc12)c1cc(C#N)ccc1F` [Example 12, 3-[(1R)-1-({3-chloro-6-[2-(dimethylphosphoryl)pyrimidin-5-yl]-7-fluoroquinolin-4-yl}amino)ethyl]-4-fluorobenzonitrile], for which the pIC50 was ≥ 6.00. Turning to `Cc1nc2cc(F)c(-c3ccc(P(C)(C)=O)nc3)nc2c(N[C@H](C)c2cc(C(N)=O)ccc2F)c1Cl` [Example 13, 3-[(1R)-1-({3-chloro-6-[6-(dimethylphosphoryl)pyridin-3-yl]-7-fluoro-2-methyl-1,5-naphthyridin-4-yl}amino)ethyl]-4-fluorobenzamide], the pIC50 is ≥ 7.00.

Regarding `C[C@@H](Nc1c(Cl)cnc2cc(F)c(-c3cnc(P(C)(C)=O)nc3)nc12)c1cc(C#N)ccc1F` [Example 14, 3-[(1R)-1-({3-chloro-6-[2-(dimethylphosphoryl)pyrimidin-5-yl]-7-fluoro-1,5-naphthyridin-4-yl}amino)ethyl]-4-fluorobenzonitrile], the negative-log IC50 (pIC50) is ≥ 6.00. Under `C[C@@H](Nc1c(Cl)cnc2cc(F)c(-c3ccc(P(C)(C)=O)nc3)nc12)c1cc(C#N)ccc1F` [Example 15, 3-[(1R)-1-({3-chloro-6-[6-(dimethylphosphoryl)pyridin-3-yl]-7-fluoro-1,5-naphthyridin-4-yl}amino)ethyl]-4-fluorobenzonitrile] stands ≥ 7.00. The result for `CC[C@@H](Nc1c(Cl)c(C)nc2cc(F)c(-c3cnc(P(C)(C)=O)nc3)nc12)c1ccccc1F` [Example 16, 3-chloro-6-[2-(dimethylphosphoryl)pyrimidin-5-yl]-7-fluoro-N-[(1R)-1-(2-fluorophenyl)propyl]-2-methyl-1,5-naphthyridin-4-amine] reads ≥ 7.00; that for `CC[C@H](Nc1c(Cl)c(C)nc2cc(F)c(-c3cnc(P(C)(C)=O)nc3)nc12)c1ccccc1F` [Example 17, 3-chloro-6-[2-(dimethylphosphoryl)pyrimidin-5-yl]-7-fluoro-N-[(1S)-1-(2-fluorophenyl)propyl]-2-methyl-1,5-naphthyridin-4-amine], ≥ 6.00. The result for `Cc1nc2cc(F)c(-c3ccc(P(C)(C)=O)nc3)nc2c(N[C@H](C)c2ccccc2F)c1Cl` [Example 18, 3-chloro-6-[6-(dimethylphosphoryl)pyridin-3-yl]-7-fluoro-N-[(1R)-1-(2-fluorophenyl)ethyl]-2-methyl-1,5-naphthyridin-4-amine] reads ≥ 7.00; that for `Cc1nc2cc(F)c(-c3ccc(P(C)(C)=O)nc3)cc2c(N[C@H](C)c2ccccc2F)c1Cl` [Example 19, 3-chloro-6-[6-(dimethylphosphoryl)pyridin-3-yl]-7-fluoro-N-[(1R)-1-(2-fluorophenyl)ethyl]-2-methylquinolin-4-amine], ≥ 7.00. On to `CC[C@@H](Nc1c(Cl)c(C)nc2cc(F)c(-c3ccc(P(C)(C)=O)nc3)nc12)c1cc(C#N)ccc1F` [Example 20, 3-[(1R)-1-({3-chloro-6-[6-(dimethylphosphoryl)pyridin-3-yl]-7-fluoro-2-methyl-1,5-naphthyridin-4-yl}amino)propyl]-4-fluorobenzonitrile], for which the pIC50 is ≥ 7.00.
